Measurements reported in ChEMBL document CHEMBL4428102, “Discovery of an Orally Bioavailable Gonadotropin-Releasing Hormone Receptor Antagonist” (J Med Chem, 2016).

Molecular target: T1, Gonadotropin-releasing hormone receptor (Homo sapiens, UniProt P30968)
T1 sequence (P30968 whole entry): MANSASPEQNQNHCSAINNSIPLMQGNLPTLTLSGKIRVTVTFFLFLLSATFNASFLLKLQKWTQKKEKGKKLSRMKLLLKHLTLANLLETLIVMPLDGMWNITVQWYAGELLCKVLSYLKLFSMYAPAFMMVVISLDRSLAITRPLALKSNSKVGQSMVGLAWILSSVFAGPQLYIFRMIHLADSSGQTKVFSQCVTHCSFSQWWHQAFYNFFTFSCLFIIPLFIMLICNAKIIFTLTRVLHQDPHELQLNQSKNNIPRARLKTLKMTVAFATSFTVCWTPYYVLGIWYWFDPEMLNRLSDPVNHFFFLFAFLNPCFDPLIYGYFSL
Assay: Displacement of [125I]D-Trp6-LHRH from human GnRH receptor expressed in CHO-K1 cell membranes incubated for 1 hr by competitive binding assay

IC50 [µM]	SMILES
> 0.1	Cc1c(N2CCN(Cc3cccc(C(=O)O)c3)CC2)c(=O)n(C[C@H](N)c2ccccc2)c(=O)n1Cc1c(F)cccc1C(F)(F)F
> 0.1	Cc1c(N2CCN(CCc3ccccc3)CC2)c(=O)n(C[C@H](N)c2ccccc2)c(=O)n1Cc1c(F)cccc1F
0.01	Cc1c(N2CCN(Cc3cccc(F)c3F)CC2)c(=O)n(C[C@H](N)c2ccccc2)c(=O)n1Cc1c(F)cccc1F
> 0.1	Cc1c(N2CCN(CCCc3ccccc3)CC2)c(=O)n(C[C@H](N)c2ccccc2)c(=O)n1Cc1c(F)cccc1F
> 0.1	Cc1c(N2CCN(CC(=O)c3ccccc3Cl)CC2)c(=O)n(C[C@H](N)c2ccccc2)c(=O)n1Cc1c(F)cccc1F
0.00091	Cc1c(N2CCN(Cc3cccc(C(F)(F)F)c3)CC2)c(=O)n(C[C@H](N)c2ccccc2)c(=O)n1Cc1c(F)cccc1F
> 0.1	Cc1c(N2CCCCC2C)c(=O)n(C[C@H](N)c2ccccc2)c(=O)n1Cc1c(F)cccc1F (some centres not stated)
> 0.1	Cc1c(N2CCN(Cc3ccncc3)CC2)c(=O)n(C[C@H](N)c2ccccc2)c(=O)n1Cc1c(F)cccc1F
> 1	Cc1c(N2CCN(CC3CCCCC3)CC2)c(=O)n(C[C@H](N)c2ccccc2)c(=O)n1Cc1c(F)cccc1F
> 0.1	Cc1c(N2CCN[C@H](Cc3ccccc3)C2)c(=O)n(C[C@H](N)c2ccccc2)c(=O)n1Cc1c(F)cccc1F

Molecular target: T1, Gonadotropin-releasing hormone receptor
Assay: Antagonist activity against human GnRH receptor expressed in HEK293 cells co-transfected with pGL4-NFAT promoter AP1-luc assessed as inhibition of 20 nM GnRH-induced NFAT activation pre-incubated for 1 hr before GnRH stimulation and measured after 6 hrs by luciferase reporter gene assay
Format: cell-based

IC50 [µM]	SMILES
0.053	Cc1c(N2CCN(Cc3cccc(-c4ncco4)c3)CC2)c(=O)n(C[C@H](N)c2ccccc2)c(=O)n1Cc1c(F)cccc1C(F)(F)F
0.061	Cc1c(N2CCN(Cc3cccc(C#N)c3F)CC2)c(=O)n(C[C@H](N)c2ccccc2)c(=O)n1Cc1c(F)cccc1C(F)(F)F
> 0.3	Cc1c(N2CCN(Cc3cccc(=O)o3)CC2)c(=O)n(C[C@H](N)c2ccccc2)c(=O)n1Cc1c(F)cccc1C(F)(F)F
0.226	Cc1c(N2CCN(Cc3ccnc(C(F)(F)F)c3)CC2)c(=O)n(C[C@H](N)c2ccccc2)c(=O)n1Cc1c(F)cccc1C(F)(F)F
> 0.3	Cc1c(N2CCN(Cc3ccc(C(N)=O)o3)CC2)c(=O)n(C[C@H](N)c2ccccc2)c(=O)n1Cc1c(F)cccc1C(F)(F)F
0.042	Cc1c(N2CCN(Cc3cccc(C(N)=O)c3F)CC2)c(=O)n(C[C@H](N)c2ccccc2)c(=O)n1Cc1c(F)cccc1C(F)(F)F
0.108	Cc1c(N2CCN(Cc3cccc(F)c3C#N)CC2)c(=O)n(C[C@H](N)c2ccccc2)c(=O)n1Cc1c(F)cccc1C(F)(F)F
0.0512	Cc1c(N2CCN(Cc3cccc([S+](C)[O-])c3)CC2)c(=O)n(C[C@H](N)c2ccccc2)c(=O)n1Cc1c(F)cccc1C(F)(F)F (some centres not stated)
> 0.3	Cc1c(N2CCN(Cc3cccc4cnoc34)CC2)c(=O)n(C[C@H](N)c2ccccc2)c(=O)n1Cc1c(F)cccc1C(F)(F)F
0.062	Cc1c(N2CCN(Cc3ccc(C(F)(F)F)s3)CC2)c(=O)n(C[C@H](N)c2ccccc2)c(=O)n1Cc1c(F)cccc1C(F)(F)F
> 0.3	Cc1c(N2CCN(Cc3cccnc3C(F)(F)F)CC2)c(=O)n(C[C@H](N)c2ccccc2)c(=O)n1Cc1c(F)cccc1C(F)(F)F
> 0.3	Cc1c(N2CCN(Cc3cccc4occc34)CC2)c(=O)n(C[C@H](N)c2ccccc2)c(=O)n1Cc1c(F)cccc1C(F)(F)F
0.17	CNC(=O)c1cccc(CN2CCN(c3c(C)n(Cc4c(F)cccc4C(F)(F)F)c(=O)n(C[C@H](N)c4ccccc4)c3=O)CC2)c1
> 0.3	Cc1c(N2CCN(Cc3ccc(C(C)(C)C)o3)CC2)c(=O)n(C[C@H](N)c2ccccc2)c(=O)n1Cc1c(F)cccc1C(F)(F)F
> 0.3	Cc1c(N2CCN(Cc3nnc(C(F)(F)F)o3)CC2)c(=O)n(C[C@H](N)c2ccccc2)c(=O)n1Cc1c(F)cccc1C(F)(F)F
> 0.3	Cc1c(N2CCN(Cc3cc(C(F)(F)F)co3)CC2)c(=O)n(C[C@H](N)c2ccccc2)c(=O)n1Cc1c(F)cccc1C(F)(F)F
> 0.3	Cc1ccc(CN2CCN(c3c(C)n(Cc4c(F)cccc4C(F)(F)F)c(=O)n(C[C@H](N)c4ccccc4)c3=O)CC2)o1
0.115	Cc1c(N2CCN(Cc3cccc([N+](=O)[O-])c3F)CC2)c(=O)n(C[C@H](N)c2ccccc2)c(=O)n1Cc1c(F)cccc1C(F)(F)F
0.217	Cc1c(N2CCN(Cc3cccc(C(F)(F)F)n3)CC2)c(=O)n(C[C@H](N)c2ccccc2)c(=O)n1Cc1c(F)cccc1C(F)(F)F
> 0.3	Cc1c(N2CCN(Cc3ccncn3)CC2)c(=O)n(C[C@H](N)c2ccccc2)c(=O)n1Cc1c(F)cccc1C(F)(F)F
> 0.3	CCNC(=O)c1cccc(CN2CCN(c3c(C)n(Cc4c(F)cccc4C(F)(F)F)c(=O)n(C[C@H](N)c4ccccc4)c3=O)CC2)c1
> 0.3	Cc1c(N2CCN(Cc3ccc(C(F)(F)F)nc3)CC2)c(=O)n(C[C@H](N)c2ccccc2)c(=O)n1Cc1c(F)cccc1C(F)(F)F
